According to patent publication US20090123954A1, “MULTICOLOR BIOLUMINESCENT VISUALIZATION PROBE SET, OR SINGLE-MOLECULE-FORMAT MULTICOLOR BIOLUMINESCENT VISUALIZATION PROBE” (National Institute of Advanced Industrial Science and …, priority 2007, published 2009):
Read-outs that look alike come from different tables or passages of the source. Ends that are not written are not given here.

Key:
ER LBD [1] = target: T1, ER LBD (Homo sapiens, UniProt P03372); experiment: Estrogenicity score in COS-7 cells co-expressing pSimer-R2 and pSimer-G6
T1 sequence (P03372 305-550) 1: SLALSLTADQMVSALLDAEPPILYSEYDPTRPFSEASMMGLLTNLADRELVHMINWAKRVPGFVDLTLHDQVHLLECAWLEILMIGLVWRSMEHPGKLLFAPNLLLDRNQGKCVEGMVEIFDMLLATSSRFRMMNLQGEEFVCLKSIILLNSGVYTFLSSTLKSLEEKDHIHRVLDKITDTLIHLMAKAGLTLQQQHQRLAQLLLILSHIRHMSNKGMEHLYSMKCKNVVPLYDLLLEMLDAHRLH
T1 sequence (P03372 305-550) 2: T1 sequence (P03372 305-550) 1

ER LBD [2] = target: T1, ER LBD; experiment: Estrogenicity score in COS-7 cells cotransfected with pSimer-R2 and pSimer-G4; assay type: cell-based; parameters: cDNAs of ER LBD (305-550 AA) and phosphorylation-recognition domain of Src (SH2) were amplified by PCR; expressed in transfected cells; host or cells: COS-7
Protocol: A COS-7 cells carrying both pSimer-R2 and pSimer-G4 were simulated with ligands for 20 minutes, and spectrum of luminescence emitted as a result with all wavelengths was observed (FIG. 11). […] The term genomic signal used herein refers to an intracellular signal involved in conventional protein expression in the nucleus. On the other hand, the term non-genomic signal means an intracellular signal not accompanying conventional protein expression. Typically, this is the general classification of intracellular signal transductions.
Further, from ratio of luminescence intensities between red signal (610 nm) and green signal (540 nm) induced by a ligand, it is possible to show numerically whether the measured ligand tends to genomic activity (also referred to as agonistic activity herein) or nongenomic activity (also referred to as antagonistic activity herein).

ER LBD [3] = target: T2, ER LBD (Homo sapiens, UniProt P03372)
T2 sequence (P03372 305-550): T1 sequence (P03372 305-550) 1

ER LBD [4] = target: T2, ER LBD; remark: listed apart in the source
ER LBD [5] = target: T2, ER LBD; remark: listed apart in the source
ER LBD [6] = target: T2, ER LBD; experiment: Ligand sensitivity of various cell lines carrying pSimer-R2 (red luminescence); details: pSimer-R2 in HeLa, COS-7, NIH 3T3 and MCF-7 cells; 20 minutes stimulation; each cell line
COS-7 cells = experiment: Optimal LXXLL motif: ligand sensitivity of COS-7 cells carrying pSimer-G plasmids; assay type: cell-based, African Green Monkey; details: E2 or OHT for 20 minutes, compared among six pSimer-G plasmids
Protocol: As shown in the above (Table 1), six kinds of LXXLL motifs as those can be applied to each of […] backbones were prepared, and introduced into […]. Ligand sensitivity of COS-7 cells carrying either one of the six kinds of plasmids was measured (FIG. 8). […] Next, spectrum from the cells carrying […]6 with all wavelengths was measured, provided ligand was present and absent (FIG. 9).

[7] = [variation of luminescence intensity at 540 nm]/[variation at 610 nm], COS-7 cells, pSimer-R2 + pSimer-G6, 20 minutes stimulation
[8] = [variation of luminescence intensity at 540 nm]/[variation at 610 nm], COS-7 cells, pSimer-R2 + pSimer-G4, 20 minutes stimulation

| Molecule | Estrogenicity score (ER LBD [1]; [7]) | increase in luminescence intensity (ER LBD [6]) | Estrogenicity score (ER LBD [2]; [8]) | other results |
| --- | --- | --- | --- | --- |
| CC(=O)[C@H]1CC[C@H]2[C@@H]3CCC4=CC(=O)CC[C@]4(C)[C@H]3CC[C@]12C [progesterone] | 1.06 | – | – | – |
| 4-hydroxytamoxifen [OHT] | – | remarkable luminescence intensity | – | Estrogenicity score (ER LBD [1]): 0.38; Estrogenicity score (ER LBD [2]): 0.62; concentration at which luminescence intensity peaked (ER LBD [3]): about 10^−5 M; concentration at which luminescence intensity peaked (ER LBD [4]): about 10^−5 M; time of peak luminescence intensity after stimulation (ER LBD [5]): 15 min |
| C[C@]12CC[C@@H]3c4ccc(O)cc4C[C@@H](CCCCCCCCC[S+]([O-])CCCC(F)(F)C(F)(F)F)[C@H]3[C@@H]1CC[C@@H]2O (stereo partly shown) [ICI, ICI182780] | 1.08 | remarkable luminescence intensity | 0.86 | – |
| C[C@]12CC[C@H]3[C@@H](CCC4=CC(=O)CC[C@@]43C)[C@@H]1CC[C@@H]2O [T, testosterone] | 1.07 | – | 1.07 | – |
| pSimer-G6: green luminescent probe, Rip140 motif 946 VCNESLLLQKLVNFS 932 (also: within green luminescent probe) | – | – | – | luminescence intensity ratio relative to control (S/N ratio) (COS-7 cells): strongest luminescence intensity ratio relative to control |
